Results: patent publication US4971967A, “Quinolinecarboxylic acid derivatives, antibacterial compositions and use” (Kanebo Ltd, priority 1989, dated 1990)
≈ marks a conversion by molar mass, not a printed value. Structures can show the parent of a compound that is named as a salt. Where two headings read alike, the source gives them in different places.

Experiments:
Type in all cases: cell-based
[1] = test system: Morganella morganii IFO 3848; experiment: Antibacterial activity (MIC), Morganella morganii IFO 3848; settings: for MIC: Morganella morganii, IFO3848, Morganella morganii IFO 3848, Gram -, read-out: Minimum inhibitory concentration (MIC)
Method: (§1) The compounds of the present invention (A, C, D, E, F, G, H, I, J, L, O and P) and the known compound (X) as reference were dissolved in 0.1 N aqueous sodium hydroxide to prepare a solution of 5000 μg/ml in concentration. The compounds of the present invention (B, K, M and N) and the known compound (Y) were dissolved in sterilized distilled water to prepare a solution of 5000 μg/ml in concentration. Each solution was diluted with sterilized distilled water to prepare a standard solution with a concentration of each test compound: 1000 μg/ml. The test was carried out by a method as appointed by Japan Society of Chemotherapy [cf. Chemotherapy, 29, 76-79 (1981)(TOKYO)].

[2] = test system: Escherichia coli NIHJ JC-2; experiment: Antibacterial activity (MIC), E. coli NIHJ JC-2
Method: as §1

[3] = test system: Pseudomonas aeruginosa NCTC 10490; experiment: Antibacterial activity (MIC), P. aeruginosa NCTC 10490; settings: Pseudomonas aeruginosa, NCTC10490, Pseudomonas aeruginosa NCTC 10490, Gram -; read-out: Minimum inhibitory concentration (MIC)
Method: as §1

[4] = test system: Proteus vulgaris OX-19; experiment: Antibacterial activity (MIC), Proteus vulgaris OX-19
Method: as §1

[5] = test system: Citrobacter freundii NIHJ 10018-68; experiment: Antibacterial activity (MIC), Citrobacter freundii NIHJ 10018-68; settings: Citrobacter freundii, NIHJ10018, Citrobacter freundii NIHJ 10018-68, Gram -; read-out: Minimum inhibitory concentration (MIC)
Method: as §1

[6] = test system: Klebsiella pneumoniae PCI-602; experiment: Antibacterial activity (MIC), Klebsiella pneumoniae PCI-602; settings: PCI602; Klebsiella pneumoniae PCI-602, Gram -; read-out: Minimum inhibitory concentration (MIC)
Method: as §1

[7] = test system: Shigella sonnei EW-33; experiment: Antibacterial activity (MIC), Shigella sonnei EW-33; settings: Shigella sonnei, EW33, Shigella sonnei EW-33, Gram -; read-out: Minimum inhibitory concentration (MIC)
Method: as §1

[8] = test system: Escherichia coli KC-14; experiment: Antibacterial activity (MIC), E. coli KC-14
Method: as §1

[9] = test system: Pseudomonas aeruginosa E-2; experiment: Antibacterial activity (MIC), P. aeruginosa E-2; settings: E2; Pseudomonas aeruginosa E-2, Gram -; read-out: Minimum inhibitory concentration (MIC)
Method: as §1

[10] = test system: Staphylococcus aureus FDA 209P JC-1; experiment: Antibacterial activity (MIC), S. aureus FDA 209P JC-1; settings: FDA209P, read-out: Minimum inhibitory concentration (MIC)
Method: as §1

[11] = test system: Proteus mirabilis IFO 3849; experiment: Antibacterial activity (MIC), Proteus mirabilis IFO 3849; settings: IFO3849; Proteus mirabilis IFO 3849, Gram -; read-out: Minimum inhibitory concentration (MIC)
Method: as §1

[12] = test system: Enterobacter cloacae 963; experiment: Antibacterial activity (MIC), Enterobacter cloacae 963
Method: as §1

[13] = test system: Streptococcus faecalis IID 682; experiment: Antibacterial activity (MIC), Streptococcus faecalis IID 682; settings: for MIC: Enterococcus faecalis
Method: as §1

[14] = test system: Bacillus subtilis ATCC 6633; experiment: Antibacterial activity (MIC), Bacillus subtilis ATCC 6633; settings: Bacillus subtilis, ATCC6633, Bacillus subtilis ATCC 6633, Gram +; read-out: Minimum inhibitory concentration (MIC)
Method: as §1

[15] = test system: Micrococcus luteus ATCC 9341; experiment: Antibacterial activity (MIC), Micrococcus luteus ATCC 9341; settings: ATCC9341; Micrococcus luteus ATCC 9341, Gram +; read-out: Minimum inhibitory concentration (MIC)
Method: as §1

[16] = test system: Salmonella typhimurium IID 971; experiment: Antibacterial activity (MIC), Salmonella typhimurium IID 971; settings: Salmonella enterica, read-out: Minimum inhibitory concentration (MIC)
Method: as §1

[17] = test system: Pseudomonas aeruginosa IFO 3445; experiment: Antibacterial activity (MIC), P. aeruginosa IFO 3445; settings: Pseudomonas aeruginosa, IFO3445, Pseudomonas aeruginosa IFO 3445, Gram -; read-out: Minimum inhibitory concentration (MIC)
Method: as §1

[18] = test system: Staphylococcus aureus IID 803; experiment: Antibacterial activity (MIC), S. aureus IID 803
Method: as §1

[19] = test system: Serratia marcescens IAM 1184; experiment: Antibacterial activity (MIC), Serratia marcescens IAM 1184; settings: Serratia marcescens, IAM1184, Serratia marcescens IAM 1184, Gram -; read-out: Minimum inhibitory concentration (MIC)
Method: as §1

[20] = test system: Enterobacter aerogenes ATCC 13048; experiment: Antibacterial activity (MIC), Enterobacter aerogenes ATCC 13048; settings: Klebsiella aerogenes
Method: as §1

[21] = test system: Staphylococcus epidermidis IAM-1296; experiment: Antibacterial activity (MIC), S. epidermidis IAM-1296; settings: Staphylococcus epidermidis
Method: as §1

[22] = test system: Acinetobacter calcoaceticus AC 54; experiment: Antibacterial activity (MIC), Acinetobacter calcoaceticus AC 54; settings: AC54; Acinetobacter calcoaceticus AC 54, Gram -; read-out: Minimum inhibitory concentration (MIC)
Method: as §1

[23] = OX19, Proteus vulgaris OX-19, Gram -, read-out: Minimum inhibitory concentration (MIC)
[24] = Escherichia coli, KC14, read-out: Minimum inhibitory concentration (MIC)
[25] = IID682, Streptococcus faecalis IID 682, Gram +, read-out: Minimum inhibitory concentration (MIC)
[26] = Staphylococcus aureus, IID803, read-out: Minimum inhibitory concentration (MIC)
[27] = NIHJJC2, Escherichia coli NIHJ JC-2, Gram -, read-out: Minimum inhibitory concentration (MIC)
[28] = Enterobacter cloacae, 963, Enterobacter cloacae 963, Gram -, read-out: Minimum inhibitory concentration (MIC)
[29] = Salmonella typhimurium IID 971, Gram -
[30] = ATCC13048, Enterobacter aerogenes ATCC 13048, Gram -, read-out: Minimum inhibitory concentration (MIC)
[31] = IAM1296, Staphylococcus epidermidis IAM-1296, Gram +, read-out: Minimum inhibitory concentration (MIC)
[32] = KC14, Escherichia coli KC-14, Gram -, read-out: Minimum inhibitory concentration (MIC)

SMILES: CC1CN(c2c(F)cc3c(=O)c(C(=O)O)c4scc5n4c3c2N(C)C5)CCN1 (centres unmarked) [Compound (D), 9,1-(Methylimino)methano-7-fluoro-8-(3-methyl-1-piperazinyl)-5-oxo-5H-thiazolo[3,2-a]quinoline-4-carboxylic acid]
- MIC [1]: 0.1 µg/mL (≈ 0.248 µM)
- MIC ([2]; Escherichia coli, NIHJJC2, read-out: Minimum inhibitory concentration (MIC)): 0.05 µg/mL (≈ 0.124 µM)
- MIC [3]: 0.39 µg/mL (≈ 0.969 µM)
- MIC [4, 23]: 0.006 µg/mL (≈ 0.0149 µM)
- MIC [5]: 0.39 µg/mL (≈ 0.969 µM)
- MIC [6]: 6 ng/mL (≈ 0.0149 µM)
- MIC [7]: 0.05 µg/mL (≈ 0.124 µM)
- MIC [8, 24]: 0.05 µg/mL (≈ 0.124 µM)
- MIC [9]: 0.78 µg/mL (≈ 1.94 µM)
- MIC ([10]; Staphylococcus aureus): 0.05 µg/mL (≈ 0.124 µM)
- MIC [11]: 0.2 µg/mL (≈ 0.497 µM)
- MIC ([12]; Enterobacter cloacae, 963, read-out: Minimum inhibitory concentration (MIC)): 0.05 µg/mL (≈ 0.124 µM)
- MIC [13, 25]: 0.1 µg/mL (≈ 0.248 µM)
- MIC [14]: 6 ng/mL (≈ 0.0149 µM)
- MIC [15]: 0.39 µg/mL (≈ 0.969 µM)
- MIC [16]: 0.05 µg/mL (≈ 0.124 µM)
- MIC [17]: 0.78 µg/mL (≈ 1.94 µM)
- MIC [18, 26]: 0.05 µg/mL (≈ 0.124 µM)
- MIC [19]: 0.39 µg/mL (≈ 0.969 µM)
- MIC ([20]; ATCC13048, read-out: Minimum inhibitory concentration (MIC)): 0.05 µg/mL (≈ 0.124 µM)
- MIC ([21]; IAM1296, read-out: Minimum inhibitory concentration (MIC)): 0.05 µg/mL (≈ 0.124 µM)
- MIC [22]: 0.025 µg/mL (≈ 0.0621 µM)

SMILES: CC1CN(c2c(F)cc3c(=O)c(C(=O)O)c4scc5n4c3c2N(C)C5)CC(C)N1 (centres unmarked) [Compound (E), 9,1-(Methylimino)methano-7-fluoro-8-(3,5-dimethyl-1-piperazinyl)-5-oxo-5H-thiazolo[3,2-a]-quinoline-4-carboxylic acid]
- MIC [1]: 0.39 µg/mL (≈ 0.936 µM)
- MIC [2, 27]: 0.1 µg/mL (≈ 0.24 µM)
- MIC [3]: 0.39 µg/mL (≈ 0.936 µM)
- MIC ([4]; Proteus vulgaris, OX19, read-out: Minimum inhibitory concentration (MIC)): 0.05 µg/mL (≈ 0.12 µM)
- MIC [5]: 1.56 µg/mL (≈ 3.75 µM)
- MIC [6]: 6 ng/mL (≈ 0.0144 µM)
- MIC [7]: 0.05 µg/mL (≈ 0.12 µM)
- MIC [8, 24]: 0.05 µg/mL (≈ 0.12 µM)
- MIC [9]: 1.56 µg/mL (≈ 3.75 µM)
- MIC ([10]; Staphylococcus aureus): 0.05 µg/mL (≈ 0.12 µM)
- MIC [11]: 0.78 µg/mL (≈ 1.87 µM)
- MIC [12, 28]: 0.2 µg/mL (≈ 0.48 µM)
- MIC [13, 25]: 0.2 µg/mL (≈ 0.48 µM)
- MIC [14]: 25 ng/mL (≈ 0.06 µM)
- MIC [15]: 0.39 µg/mL (≈ 0.936 µM)
- MIC [16, 29]: 0.1 µg/mL (≈ 0.24 µM)
- MIC [17]: 1.56 µg/mL (≈ 3.75 µM)
- MIC [18, 26]: 0.05 µg/mL (≈ 0.12 µM)
- MIC [19]: 0.78 µg/mL (≈ 1.87 µM)
- MIC [20, 30]: 0.2 µg/mL (≈ 0.48 µM)
- MIC [21, 31]: 0.1 µg/mL (≈ 0.24 µM)
- MIC [22]: 0.025 µg/mL (≈ 0.06 µM)

SMILES: CN1Cc2csc3c(C(=O)O)c(=O)c4cc(F)c(N5CCCC5)c1c4n23 [Compound (F), 9,1-(Methylimino)methano-7-fluoro-8-(1-pyrrolidinyl)-5-oxo-5H-thiazolo[3,2-a]quinoline-4-carboxylic acid]
- MIC [1]: 0.39 µg/mL (≈ 1.04 µM)
- MIC [2, 27]: 0.2 µg/mL (≈ 0.536 µM)
- MIC [3]: 0.39 µg/mL (≈ 1.04 µM)
- MIC [4, 23]: 0.025 µg/mL (≈ 0.067 µM)
- MIC [5]: 1.56 µg/mL (≈ 4.18 µM)
- MIC [6]: 6 ng/mL (≈ 0.0161 µM)
- MIC [7]: 0.1 µg/mL (≈ 0.268 µM)
- MIC [8, 32]: 0.2 µg/mL (≈ 0.536 µM)
- MIC [9]: 0.39 µg/mL (≈ 1.04 µM)
- MIC ([10]; Staphylococcus aureus FDA 209P JC-1, Gram +): 0.0125 µg/mL (≈ 0.0335 µM)
- MIC [11]: 0.39 µg/mL (≈ 1.04 µM)
- MIC [12, 28]: 0.39 µg/mL (≈ 1.04 µM)
- MIC ([13]; IID682, read-out: Minimum inhibitory concentration (MIC)): 0.1 µg/mL (≈ 0.268 µM)
- MIC [14]: 6 ng/mL (≈ 0.0161 µM)
- MIC [15]: 0.39 µg/mL (≈ 1.04 µM)
- MIC [16, 29]: 0.2 µg/mL (≈ 0.536 µM)
- MIC [17]: 0.78 µg/mL (≈ 2.09 µM)
- MIC ([18]; IID803, Staphylococcus aureus IID 803, Gram +, read-out: Minimum inhibitory concentration (MIC)): 0.0125 µg/mL (≈ 0.0335 µM)
- MIC [19]: 0.78 µg/mL (≈ 2.09 µM)
- MIC [20, 30]: 0.39 µg/mL (≈ 1.04 µM)
- MIC [21, 31]: 0.025 µg/mL (≈ 0.067 µM)
- MIC [22]: 0.006 µg/mL (≈ 0.0161 µM)

SMILES: CCN1CCN(c2c(F)cc3c(=O)c(C(=O)O)c4scc5n4c3c2N(C)C5)CC1 [Compound (K), 9,1-(Methylimino)methano-7-fluoro-8-(4-ethyl-1-piperazinyl)-5-oxo-5H-thiazolo[3,2-a]quinoline-4-carboxylic acid hydrochloride]
- Minimum inhibitory concentration (MIC) ([1]; Morganella morganii IFO 3848, Gram -, hydrochloride): 0.20 µg/mL
- MIC [8, 32]: 0.05 µg/mL
- Minimum inhibitory concentration (MIC) ([13]; Streptococcus faecalis IID 682, Gram +, hydrochloride): 0.20 µg/mL
- MIC [16, 29]: 0.05 µg/mL
- MIC [22]: 0.05 µg/mL
